Test results: patent US10392348B2, “2-oxo-3,4-dihydroquinoline compounds as plant growth regulators” (Syngenta Participations AG, priority 2015, dated 2019)
Read-outs that look alike come from different tables or passages of the source.

What was measured:
[1] = test system: soybean plants (variety S20-G7); assay: Reduced plant water use in soybean (foliar spray, repeated weighing of pots); format: in vivo; conditions: Glycine max, foliar, Table B1, sprayed at 500 μM, vs negative control
Summary of the method: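 Daytime water use was tracked by weighing pots of 12-day-old soybean after foliar spray of compound formulated as EC plus EXTRAVON 1 g/20 L. Cumulative total (0-2.5 DAA) sums a.m. and p.m. readings; values baseline-adjusted by covariance analysis against formulation-only negative control.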

[2] = test system: corn plants (variety NK OCTET); assay: Reduced plant water use in corn (foliar spray, repeated weighing of pots); format: in vivo; conditions: Zea mays, corn plants sprayed at 500 μM, average of 6 pots
Summary of the method: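 Water use was summed over 0–2.5 days after application, from repeated day-time weighings of pots and corrected by ANCOVA for pre-application baseline. Plants, 12 days old, received foliar EC sprays diluted with water plus 0.4% rape seed methyl ester adjuvant.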

[3] = 0 h, 0 DAA a.m. (10:30-12:50), read-out: % WU 0 DAA AM
[4] = 24 h, 1 DAA a.m. (7:30-12:50), read-out: % WU 1DAA AM
[5] = 24 h, 1 DAA p.m. (14:00-19:50), read-out: % WU 1DAA PM
[6] = 48 h, 2 DAA a.m. (07:30-12:50), read-out: % WU 2 DAA AM
[7] = 48 h, 2 DAA p.m. (14:00-19:50), read-out: % WU 2 DAA PM
[8] = 60 h, cumulative total WU (0-2.5 DAA), read-out: % WU Total 0 to 2.5 DAA
[9] = 0 h, water use during day time vs negative control, 0 DAA a.m. (10:30-12:50), read-out: % WU 0 DAA AM
[10] = 0 h, water use during day time vs negative control, 0 DAA p.m. (14:00-19:50), read-out: % WU 0DAA PM
[11] = 24 h, water use during day time vs negative control, 1 DAA a.m. (07:30-12:50), read-out: % WU 1DAA AM
[12] = 24 h, water use during day time vs negative control, 1 DAA p.m. (14:00-19:50), read-out: % WU 1DAA PM
[13] = 48 h, water use during day time vs negative control, 2 DAA a.m. (07:30-12:50), read-out: % WU 2 DAA AM
[14] = 48 h, water use during day time vs negative control, 2 DAA p.m. (14:00-19:50), read-out: % WU 2 DAA PM
[15] = 60 h, cumulative total water use 0-2.5 DAA (sum of the time points) vs negative control, read-out: % WU Total 0 to 2.5 DAA

CCCN1C(=O)CCc2cc(CNS(=O)(=O)c3c(F)cccc3F)ccc21 [Compound 3.005, 2,6-difluoro-N-[(2-oxo-1-propyl-3,4-dihydroquinolin-6-yl)methyl]benzenesulfonamide]
change in vivo at 500 µM [1, 3]: -37.5%
change in vivo at 500 µM [1, 4]: -24.9%
change in vivo at 500 µM [1, 5]: -21.9%
change in vivo at 500 µM [1, 6]: -12.9%
change in vivo at 500 µM [1, 7]: -12%
change in vivo at 500 µM [1, 8]: -21.9%
melting point: 182 to 183 °C
change in vivo at 500 µM [2, 9]: -16.2%
change in vivo at 500 µM [2, 10]: -10.5%
change in vivo at 500 µM [2, 11]: -9.2%
change in vivo at 500 µM [2, 12]: -7.9%
change in vivo at 500 µM [2, 13]: -5.4%
change in vivo at 500 µM [2, 14]: -5.3%
change in vivo at 500 µM [2, 15]: -8.2%

CCCN1C(=O)CCc2cc(CNS(=O)(=O)c3ccc(F)cc3F)ccc21 [Compound 3.006, 2,4-difluoro-N-[(2-oxo-1-propyl-3,4-dihydroquinolin-6-yl)methyl]benzenesulfonamide]
change in vivo at 500 µM [1, 3]: -36.5%
change in vivo at 500 µM [1, 4]: -28.3%
change in vivo at 500 µM [1, 5]: -24.2%
change in vivo at 500 µM [1, 6]: -17.8%
change in vivo at 500 µM [1, 7]: -14.9%
change in vivo at 500 µM [1, 8]: -24.5%
melting point: 141 to 144 °C
change in vivo at 500 µM [2, 9]: -18%
change in vivo at 500 µM [2, 10]: -14.1%
change in vivo at 500 µM [2, 11]: -12.6%
change in vivo at 500 µM [2, 12]: -10.2%
change in vivo at 500 µM [2, 13]: -6.6%
change in vivo at 500 µM [2, 14]: -5.7%
change in vivo at 500 µM [2, 15]: -10.3%

CCCN1C(=O)CCc2cc(CNS(=O)(=O)c3ccccc3F)ccc21 [Compound 3.007, 2-fluoro-N-[(2-oxo-1-propyl-3,4-dihydroquinolin-6-yl)methyl]benzenesulfonamide]
change in vivo at 500 µM [1, 3]: -16.1%
change in vivo at 500 µM [1, 4]: -12.7%
change in vivo at 500 µM [1, 5]: -9.7%
change in vivo at 500 µM [1, 6]: -7.7%
change in vivo at 500 µM [1, 7]: -7.6%
change in vivo at 500 µM [1, 8]: -10.8%
melting point: 155 to 156 °C
change in vivo at 500 µM [2, 9]: -16%
change in vivo at 500 µM [2, 10]: -12%
change in vivo at 500 µM [2, 11]: -11.4%
change in vivo at 500 µM [2, 12]: -9.5%
change in vivo at 500 µM [2, 13]: -6.6%
change in vivo at 500 µM [2, 14]: -5.9%
change in vivo at 500 µM [2, 15]: -9.4%

CCCN1C(=O)CCc2cc(CNS(=O)(=O)c3ccc(F)cc3)ccc21 [Compound 3.009, 4-fluoro-N-[(2-oxo-1-propyl-3,4-dihydroquinolin-6-yl)methyl]benzenesulfonamide]
change in vivo at 500 µM [1, 3]: -17.5%
change in vivo at 500 µM [1, 4]: -9.4%
change in vivo at 500 µM [1, 5]: -6.4%
change in vivo at 500 µM [1, 6]: -5.5%
change in vivo at 500 µM [1, 7]: -4.2%
change in vivo at 500 µM [1, 8]: -8.5%
melting point: 143 to 144 °C
change in vivo at 500 µM [2, 9]: -16.9%
change in vivo at 500 µM [2, 10]: -13.9%
change in vivo at 500 µM [2, 11]: -13.2%
change in vivo at 500 µM [2, 12]: -11.9%
change in vivo at 500 µM [2, 13]: -9%
change in vivo at 500 µM [2, 14]: -8.2%
change in vivo at 500 µM [2, 15]: -11.6%

CCCN1C(=O)CCc2cc(CNS(=O)(=O)c3ccc(OC)cc3)ccc21 [Compound 3.010, 4-methoxy-N-[(2-oxo-1-propyl-3,4-dihydroquinolin-6-yl)methyl]benzenesulfonamide]
change in vivo at 500 µM [1, 3]: -28%
change in vivo at 500 µM [1, 4]: -3%
change in vivo at 500 µM [1, 5]: -1%
change in vivo at 500 µM [1, 6]: -2.1%
change in vivo at 500 µM [1, 7]: -1.7%
change in vivo at 500 µM [1, 8]: -5.7%
melting point: 143 to 144 °C
change in vivo at 500 µM [2, 9]: -14.4%
change in vivo at 500 µM [2, 10]: -8.3%
change in vivo at 500 µM [2, 11]: -6.3%
change in vivo at 500 µM [2, 12]: -5.4%
change in vivo at 500 µM [2, 13]: -2.5%
change in vivo at 500 µM [2, 14]: -2.2%
change in vivo at 500 µM [2, 15]: -5.5%

C/C=C/S(=O)(=O)NCc1ccc2c(c1)CCC(=O)N2CCC [Compound 3.060, (E)-N-[(2-oxo-1-propyl-3,4-dihydroquinolin-6-yl)methyl]prop-1-ene-1-sulfonamide]
change in vivo at 500 µM [1, 3]: -7.9%
change in vivo at 500 µM [1, 4]: -5.8%
change in vivo at 500 µM [1, 5]: -2.6%
change in vivo at 500 µM [1, 6]: -5.4%
change in vivo at 500 µM [1, 7]: -2.7%
change in vivo at 500 µM [1, 8]: -4.6%
melting point: 95 to 99 °C
change in vivo at 500 µM [2, 9]: -14.8%
change in vivo at 500 µM [2, 10]: -10%
change in vivo at 500 µM [2, 11]: -10.6%
change in vivo at 500 µM [2, 12]: -8.4%
change in vivo at 500 µM [2, 13]: -8.2%
change in vivo at 500 µM [2, 14]: -6.4%
change in vivo at 500 µM [2, 15]: -9.3%

CCCN1C(=O)CCc2cc(CNS(=O)(=O)c3ccc(C)s3)ccc21 [Compound 3.061, 5-methyl-N-[(2-oxo-1-propyl-3,4-dihydroquinolin-6-yl)methyl]thiophene-2-sulfonamide]
change in vivo at 500 µM [1, 3]: -47.8%
change in vivo at 500 µM [1, 4]: 1%
change in vivo at 500 µM [1, 5]: 3.4%
change in vivo at 500 µM [1, 6]: 1.6%
change in vivo at 500 µM [1, 7]: 1.2%
change in vivo at 500 µM [1, 8]: -13.7%
melting point: 151 to 154 °C
change in vivo at 500 µM [2, 9]: -20.8%
change in vivo at 500 µM [2, 10]: -19.1%
change in vivo at 500 µM [2, 11]: -9.5%
change in vivo at 500 µM [2, 12]: -7.5%
change in vivo at 500 µM [2, 13]: -2.8%
change in vivo at 500 µM [2, 14]: -3.9%
change in vivo at 500 µM [2, 15]: -9%

CCCN1C(=O)CCc2cc(CNS(=O)(=O)c3cn(C)cn3)ccc21 [Compound 3.063, 1-methyl-N-[(2-oxo-1-propyl-3,4-dihydroquinolin-6-yl)methyl]imidazole-4-sulfonamide]
change in vivo at 500 µM [1, 3]: -9.3%
change in vivo at 500 µM [1, 4]: -5.1%
change in vivo at 500 µM [1, 5]: -3.9%
change in vivo at 500 µM [1, 6]: -6.6%
change in vivo at 500 µM [1, 7]: -5%
change in vivo at 500 µM [1, 8]: -5.5%
melting point: 168 to 171 °C
change in vivo at 500 µM [2, 9]: -8.4%
change in vivo at 500 µM [2, 10]: -3.1%
change in vivo at 500 µM [2, 11]: -3%
change in vivo at 500 µM [2, 12]: -1%
change in vivo at 500 µM [2, 13]: -1.5%
change in vivo at 500 µM [2, 14]: 2%
change in vivo at 500 µM [2, 15]: -1.4%

CCCN1C(=O)CCc2cc(CNS(=O)(=O)c3cc(Cl)sc3Cl)ccc21 [Compound 3.064, 2,5-dichloro-N-[(2-oxo-1-propyl-3,4-dihydroquinolin-6-yl)methyl]thiophene-3-sulfonamide]
change in vivo at 500 µM [1, 3]: -34.7%
change in vivo at 500 µM [1, 4]: -23.3%
change in vivo at 500 µM [1, 5]: -21.3%
change in vivo at 500 µM [1, 6]: -17.2%
change in vivo at 500 µM [1, 7]: -13.5%
change in vivo at 500 µM [1, 8]: -22.2%
melting point: 131 to 134 °C
change in vivo at 500 µM [2, 9]: -12.6%
change in vivo at 500 µM [2, 10]: -14.2%
change in vivo at 500 µM [2, 11]: -11.6%
change in vivo at 500 µM [2, 12]: -9.9%
change in vivo at 500 µM [2, 13]: -5.6%
change in vivo at 500 µM [2, 14]: -4.7%
change in vivo at 500 µM [2, 15]: -9.3%

CCCN1C(=O)CCc2cc(CNS(=O)(=O)CCC(F)(F)F)ccc21 [Compound 3.067, 3,3,3-trifluoro-N-[(2-oxo-1-propyl-3,4-dihydroquinolin-6-yl)methyl]propane-1-sulfonamide]
change in vivo at 500 µM [1, 3]: -28.4%
change in vivo at 500 µM [1, 4]: -19.3%
change in vivo at 500 µM [1, 5]: -17.2%
change in vivo at 500 µM [1, 6]: -13.3%
change in vivo at 500 µM [1, 7]: -9.5%
change in vivo at 500 µM [1, 8]: -17.2%
melting point: 132 to 135 °C
change in vivo at 500 µM [2, 9]: -14.7%
change in vivo at 500 µM [2, 10]: -10.7%
change in vivo at 500 µM [2, 11]: -12.1%
change in vivo at 500 µM [2, 12]: -11.5%
change in vivo at 500 µM [2, 13]: -9.9%
change in vivo at 500 µM [2, 14]: -10.1%
change in vivo at 500 µM [2, 15]: -11.1%

CCCN1C(=O)CCc2cc(CNS(=O)(=O)c3ccsc3)ccc21 [Compound 3.068, N-[(2-oxo-1-propyl-3,4-dihydroquinolin-6-yl)methyl]thiophene-3-sulfonamide]
change in vivo at 500 µM [1, 3]: -46%
change in vivo at 500 µM [1, 4]: -39.3%
change in vivo at 500 µM [1, 5]: -31.6%
change in vivo at 500 µM [1, 6]: -22.3%
change in vivo at 500 µM [1, 7]: -15.3%
change in vivo at 500 µM [1, 8]: -31.6%
melting point: 150 to 154 °C
change in vivo at 500 µM [2, 9]: -25.5%
change in vivo at 500 µM [2, 10]: -24.9%
change in vivo at 500 µM [2, 11]: -15.8%
change in vivo at 500 µM [2, 12]: -13.1%
change in vivo at 500 µM [2, 13]: -8.9%
change in vivo at 500 µM [2, 14]: -9.4%
change in vivo at 500 µM [2, 15]: -14.8%
